Measured values taken from article PMC10718076, “1,2-Disubstituted bicyclo[2.1.1]hexanes as saturated bioisosteres of ortho-substituted benzene” (Chemical Science, 2023).
Converted amounts (≈) assume the structure as drawn. Read-outs that look alike come from different tables or passages of the source.

Columns and labels:
[1] = Kinetic solubility in phosphate-buffered saline, pH 7.4; assay type: physicochemical; conditions: 25 °C, pH 7.4, aqueous buffer, kinetic from dmso stock; for solubility at 2 h: PBS solubility
Experimental: Analysis of Aqueous Solubility […]
compound (Ondansetron) were assessed for kinetic solubility in phosphate -buffered saline, pH 7.4.
Phosphate buffered saline, pH 7.4 (Sigma -Aldrich, USA; Cat #P3813) […]
MultiScreen HTS 96 Well Filter Plates (Millipore, Ireland; Cat # MSSLBPC10) […]
Matrix Multichannel Electronic Pipette 2-125 μL, 5-250 μL, 15-1250 μL (Thermo Scientific, USA; […]
Vacuum pump (Millipore, USA; Model # XX5500000)
The measurements were performed using SpectraMax Plus reader in UV -Vis mode. Acquisition and […]
The measurements were performed using SpectraMax Paradigm reader in UV-Vis mode.
Acquisition and analysis of the data were performed using SoftMax Pro v.5.4 (Molecular Devices) […]
Kinetic solubility assay was performed according to the Enamine’s aqueous solubility SOP. Briefly, using a 20 mM stock solution of the compound in 100% DMSO dilutions were prepared to a theoretical concentration of 400 μM in duplicates in phosphate-buffered saline pH 7.4 […]
compound dilutions in PBS were further allowed to equilibrate at 25 °C on a thermostatic shaker for two hours and then filtered through HTS filter plates using a vacuum manifold. The filtrates of test compounds were diluted 2-fold with acetonitrile with 2% DMSO before measuring.
In parallel, compound dilutions in 50% acetonitrile/PBS were prepared to theoretical concentrations […]
calibration curves. Ondansetron was used as reference compound to control proper assay performance. 200 μl of each sample was transferred to 96-well plate and measured in 230-550 nm range with 5 nm step. The effective range of this assay is approximately 2-400 μM and the […]
The concentrations of compounds in PBS filtrate are calculated using a dedicated Microsoft Excel calculation script. Proper absorbance wavelengths for calculations are selected for each compound manually based on absorbance maximums (absolute absorbance unit values for the minimum and maximum concentration points within the 0 – 3 OD range). Each final dataset is visually evaluated by the operator, and goodness of fit (R2) is calculated for each calibration curve. […]
samples were diluted 2-fold with acetonitrile containing internal standard and were analyzed using the HPLC system coupled with a tandem mass spectrometer. The effective range of this assay is […]

[2] = Metabolic stability in human liver microsomes; conditions: both, liver microsomes (pooled); for remaining at 40 min, 2 µM: Mean of 2, 40 min
[3] = physchem
Experimental: Determination of Distribution Coefficient (LogD, pH 7.4)
coefficient (or LogD) is a logarithm of the ratio of drug concentrations in two immiscible solvents,
typically pH-buffered water and n-octanol. It is a measure of hydrophobic/hydrophilic properties of
a given molecule. The partition of test compounds is determined using a shake-flask method, which
involves mixing of a certain amount of the solute of interest in defined volumes of n-octanol and an
aqueous buffer of choice followed by equilibration of the mixture by incubation with efficient
mixing. Then, the distribution of the compounds in each solvent was controlled using LC-MS/MS.
Phosphate buffered saline, tablet (Sigma-Aldrich, USA; Cat # P4417)
Acetic acid (Enamine, Ukraine)
1.1 mL microtubes in microracks, pipettor tips (Thermo Scientific, USA).
National Scientific MicroTube™ Rack (Thermo Fisher Scientific, USA; Cat # TN094612R)
Gradient HPLC system (Shimadzu, Japan)
Triple quadrapole mass-detector API 3000 with TurboIonSpray Ion Source (AB Sciex, Canada)
MTR22 Multi Mix Rotator (UNICO, USA)
Laboratory Centrifuge, Sigma 4-15C, Qiagen (SIGMA GmbH, Germany)
Water purification system Millipore Milli-Q Gradient A10 (Millipore, France)
All measurements were performed using a Shimadzu Prominence HPLC system including a
vacuum degasser, gradient pumps, a reverse phase column, a column oven and an autosampler.
Mass spectrometric analysis was performed using an API 4000 QTRAP mass spectrometer from
Applied Biosystems/MDS Sciex (AB Sciex) with Turbo V ion source and TurboIonspray
interface. The TurboIonSpray ion source was used in both positive and negative ion modes.
Acquisition and analysis of the data were performed using Analyst 1.6.3 software.
Incubations were carried out in Eppendorf-type polypropylene microtubes in triplicates. A 2.5 μL
aliquot of 20 mM DMSO stock of a test compound was added into the previously mutually
saturated mixture containing 500 μL of PBS (pH 7.4) and 500 μL of octanol. The solution was
allowed to mix in a rotator for 1 hour at 30 rpm. Phase separation was assured by centrifugation for
2 min at 6000 rpm. The octanol phase was diluted 100-fold with 40% acetonitrile, and the aqueous
phase (PBS buffer) was diluted 10-fold with 40% acetonitrile. The samples (both phases) were
analyzed using an HPLC system coupled with a tandem mass spectrometer.
Calculations of the partition ratios were carried out using the equation below.
where: – peak area of the analyte in octanol phase
– peak area of the analyte in PBS buffer
– dilution coefficient for octanol phase dp – dilution coefficient for aqueous phase

[4] = system: Aspergillus niger (strain VURV-F 822); assay: Antifungal disk diffusion method; assay type: cell-based; conditions: for zone of inhibition at 4 µg/mL: Concentration 0.004 mg/mL, Boscalid, Bixafen marked st; for zone of inhibition at 4 µg/mL / zone of inhibition at 8 µg/mL / zone of inhibition at 16 µg/mL / zone of inhibition at 30 µg/mL / zone of inhibition at 60 µg/mL: 0 = absence of antifungal activity; for zone of inhibition at 4 µg/mL / zone of inhibition at 60 µg/mL: Fluxapyroxad; for zone of inhibition at 4 µg/mL / zone of inhibition at 8 µg/mL / zone of inhibition at 16 µg/mL / zone of inhibition at 30 µg/mL / zone of inhibition at 60 µg/mL / zone of inhibition at 120 µg/mL / zone of inhibition at 250 µg/mL / zone of inhibition at 500 µg/mL / zone of inhibition at 1000 µg/mL / zone of inhibition at 2000 µg/mL: read-out: Diameter of inhibition zone; for zone of inhibition at 8 µg/mL: Concentration 0.008 mg/mL; for zone of inhibition at 16 µg/mL: Concentration 0.016 mg/mL; for zone of inhibition at 30 µg/mL: Concentration 0.03 mg/mL; for zone of inhibition at 30 µg/mL / zone of inhibition at 60 µg/mL: (±)-29 marked st; for zone of inhibition at 60 µg/mL: Concentration 0.06 mg/mL, Bixafen; for zone of inhibition at 120 µg/mL: Concentration 0.12 mg/mL, (±)-28 marked st (static growth); for zone of inhibition at 250 µg/mL: Concentration 0.25 mg/mL, (±)-28 marked st (static growth, secondary growth of mycelium); for zone of inhibition at 500 µg/mL: Concentration 0.5 mg/mL; for zone of inhibition at 500 µg/mL / zone of inhibition at 1000 µg/mL / zone of inhibition at 2000 µg/mL: 10 μl per disk; for zone of inhibition at 1000 µg/mL: Concentration 1 mg/mL; for zone of inhibition at 2000 µg/mL: Concentration 2 mg/mL; for MIC: disk diffusion, small zones of inhibition with secondary mycelial growth, read-out: minimum inhibitory concentration
Experimental: Antifungal activity of the synthetic compounds using disk diffusion methods The compounds were tested for plant pathogens Aspergillus niger (strain VURV-F 822), which was received from Culture collection of microorganisms of Crop Research Institute (Prague, Czech […]
The synthetic compounds' antifungal activity was evaluated using a disk diffusion assay for testing filamentous fungi (CLSI M51-A) and broth microdilution antifungal susceptibility testing (EUCAST E.DEF 7.3.1; CLSI M38-A2)
[CLSI M51-A. Method for Antifungal Disk Diffusion Susceptibility Testing of Nondermatophyte Filamentous Fungi; Approved Guideline.CLSI document M51-A. Wayne, PA:
Clinical and Laboratory Standards Institute; 2010. This method is standardized for Altenaria, Aspergillus, Bipolaris, Fusarium, order Mucorales, etc.]
[CLSI M38-A2. 2008. Reference method for broth dilution antifungal susceptibility testing of filamentous fungi, 2nd ed Approved standard M38 -A2 Clinical and Laboratory Standards Institute, […]
Antifungal disk diffusion method
The solutions of fungicides and their analogues were diluted in dimethyl sulfoxide (DMSO) to […]
mg/mL for each test component. Sterile paper disks (ASPECT, Ukraine) were soaked with 10 μl of a solution of the appropriate fungicide from the highest concentration to the lowest.
The fungal strains were cultured on Petri dishes with Saburo dextrose agar (Condalab, Spain) and incubated at 25 °C for 5 days. Sterile Dulbecco's phosphate -buffered saline (DPBS) with 0,1 % Tween 20 was used to cover colonies of fungus for obtained conidia l suspension. Suspension of conidia was adjusted to inoculums 2×10^5 conidia/mL by sterile DPBS.
For antifungal disk diffusion test we used square Petri dishes (FALCON A Corning Brand, USA). The conidial suspension (0.5 mL) was added to Petri dishes with Saburo dextrose agar. The suspension was evenly distributed over the surface of the nutrient medium with a glass spatula.
After the surface of the inoculated medium was dry, the disks with different concentrations of testing compounds were added to the Petri dishes. Each compound was tested in triplicate at different concentrations. Growth control was a disk with 10 μl of DMSO, which was used for test […]
Petri dishes incubated at 25 °C for 72 h. The test compounds at known concentrati on into contact with an inoculated medium then exert a growth-inhibiting effect then a clear zone (the zone of […]
inhibition) appears around the test product. The diameter of a clear zone around the well is […]
If the fungal strain is susceptible to the antifungal agent, then a zone of inhibition appears on the agar plate. If it is resistant to the test compound, then no zone is evident. The size of the zone of inhibition is usually related to the level of antifungal activity present in the compound – a larger […]
The growth rate of all strains for each concentration of test compounds was determined visually and compared with the growth of control.
Broth microdilution antifungal susceptibility testing
A 96-well CELLSTAR plate (sterile, flat-bottomed, polystyrene, transparent) was used to determine MIC by broth microdilution method. Also, dabble straight RPMI-1640 medium with 2% glucose (2x RPMI 2%G) was used for this method. Spore suspension for plate inoculation was prepared according to the method described above for the disc diffusion method.
The each well in the plate contained 49 μl of medium (2x RPMI 2%G), 50 μl of inoculum (prepared in DPBS) and 1 μl of the stock solution of the test substance. Positive control wells contained 50 μl medium and 50 μl inoculum, and sterile control wells contained 50 μl medium and […]
To determine the MIC by the microdilution method, a series of stock solutions of fungicides and their analogues in DMSO with the following concentrations were prepared: 3.2 mg/mL, 1.6 mg/mL, […]
1 μl of the stock solutions of the test substances were added to each well to obtain the following […]
Immediately after adding all the components to the plates, the optical density was measured at […]

[5] = in vitro; conditions: both, human
[6] = Table S5, injection 1, octanol/PBS pH 7.4
[7] = Table S5, injection 2, octanol/PBS pH 7.4
[8] = Table S5, injection 3, octanol/PBS pH 7.4
[9] = microsomes, pH 7.4, % Remaining, Mean of 2

| Structure (SMILES) | solubility kinetic at 2 h [1] [µM] | solubility at 2 h ([1]; pH 7.4, Incubation 1) [µM] | solubility at 2 h ([1]; pH 7.4, Incubation 2) [µM] | solubility at 2 h ([1]; pH 7.4, Mean) [µM] | D [6] | D [7] | D [8] | logD at 1 h ([3]; pH 7.4, LogD, pH 7.4) | zone of inhibition at 4 µg/mL [4] [mm] | zone of inhibition at 8 µg/mL [4] [mm] | zone of inhibition at 16 µg/mL [4] [mm] | zone of inhibition at 30 µg/mL [4] [mm] | zone of inhibition at 60 µg/mL [4] [mm] | zone of inhibition at 120 µg/mL [4] [mm] | zone of inhibition at 250 µg/mL [4] [mm] | zone of inhibition at 500 µg/mL [4] [mm] | zone of inhibition at 1000 µg/mL [4] [mm] | zone of inhibition at 2000 µg/mL [4] [mm] | MIC [4] [µg/mL] | also measured |
| --- | --- | --- | --- | --- | --- | --- | --- | --- | --- | --- | --- | --- | --- | --- | --- | --- | --- | --- | --- | --- |
| O=C(NC1CCN(CCCCC2(C(=O)NCC(F)(F)F)c3ccccc3-c3ccccc32)CC1)C1CC2CC1(c1ccc(C(F)(F)F)cc1)C2 (stereo not shown) [Compound 27] | 18 (≈ 12.6 µg/mL) | 18 (≈ 12.6 µg/mL) | 19 (≈ 13.3 µg/mL) | 18 (≈ 12.6 µg/mL) | 7.79E+03 | 7.46E+03 | 8.20E+03 | 3.89 | – | – | – | – | – | – | – | – | – | – | – | microsomal CLint at 2 µM ([2]; pH 7.4): 186 µL/min/mg; remaining at 40 min, 2 µM ([2]; pH 7.4, % Remaining without cofactor, no NADPH cofactor, Table S6, 1st batch): 106%; remaining at […], 2 µM ([2]; pH 7.4, % Remaining, Mean of 2, 7 min, Table S6, 1st batch): 47%; remaining at […], 2 µM ([2]; pH 7.4, % Remaining, Mean of 2, 15 min, Table S6, 1st batch): 20%; remaining at 25 min, 2 µM ([2]; pH 7.4, % Remaining, Mean of 2, 25 min, Table S6, 1st batch): 9%; remaining at 40 min, 2 µM ([2]; pH 7.4, % Remaining, Table S6, 1st batch): 5%; k el at 2 µM ([2]; pH 7.4, kel, Table S6, 1st batch): 0.00128 s⁻¹; half-life at 2 µM ([2]; pH 7.4, t1/2, Table S6, 1st batch): 9 min; logD at 1 h ([3]; pH 7.4, log D (7.4)): 3.9 |
| O=C(Nc1ccccc1-c1ccc(Cl)cc1)c1cccnc1Cl [Boscalid, boscalid] | 11 (≈ 3.78 µg/mL) | – | – | – | 3.62E+03 | 2.86E+03 | 4.07E+03 | – | 7.5 ± 1 | 8.5 ± 1 | 10.5 ± 1.5 | 13.5 ± 2 | 17.8 ± 2.25 | 21.2 ± 2.25 | 20.2 ± 1 | 26 ± 2.5 | 29 ± 1.5 | 34.2 ± 0.75 | 4 (≈ 11.7 µM) | – |
| Cc1nc2c([nH]1)-c1ccccc1N(C(=O)c1ccc(NC(=O)c3ccccc3-c3ccccc3)cc1)CC2 [Conivaptan, conivaptan] | 5 (≈ 2.49 µg/mL) | 4 (≈ 1.99 µg/mL) | 7 (≈ 3.49 µg/mL) | 5 (≈ 2.49 µg/mL) | 1.98E+04 | 2.11E+04 | 1.99E+04 | 4.3 | – | – | – | – | – | – | – | – | – | – | – | microsomal CLint at 2 μM ([5]; microsomes, pH 7.4): 31 µL/min/mg; remaining at 40 min, 2 µM ([5]; microsomes, pH 7.4, % Remaining without cofactor, Mean of 2): 101%; remaining at 25 min, 2 µM [5, 9]: 67%; remaining at 40 min, 2 µM [5, 9]: 60%; half-life at 2 µM ([5]; microsomes, pH 7.4, t1/2): 54.4 min; k el at 2 µM ([5]; pH 7.4, kel): 0.000217 s⁻¹ |
| Cn1cc(C(=O)Nc2ccccc2-c2cc(F)c(F)c(F)c2)c(C(F)F)n1 [Fluxapyroxad, fluxapyroxad] | 25 (≈ 9.53 µg/mL) | – | – | – | 3.37E+03 | 2.99E+03 | 3.24E+03 | – | 8 ± 2 | 11.8 ± 1.25 | 14.5 ± 0.5 | 18.2 ± 0.4 | 22.2 ± 1.25 | 25.2 ± 1.5 | 30 ± 0.5 | 34.5 ± 0.75 | 39.2 ± 2.25 | 40.8 ± 1.6 | 4 (≈ 10.5 µM) | – |
